Laboratory results taken from the supplement of paper PMC10307832.

Experiments:
Assay in all cases: relative viability (nuclei count vs DMSO), 5 days (fraction); higher = more cells survive
[1] = compound: C[C@]12O[C@H](C[C@]1(O)CO)n1c3ccccc3c3c4c(c5c6ccccc6n2c5c31)CNC4=O [Lestaurtinib] + CC1(C)CCC(c2ccc(Cl)cc2)=C(CN2CCN(c3ccc(C(=O)NS(=O)(=O)c4ccc(N[C@H](CCN5CCOCC5)CSc5ccccc5)c(S(=O)(=O)C(F)(F)F)c4)cc3)CC2)C1 [Navitoclax] (partner 0.5 µM)
Method in brief: (§1)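 The day after seeding in 1536-well plates, lung cancer cell lines were treated by pin tool with a single drug, or with a fixed anchor-drug dose together with five library-drug doses (not always all listed) in √10 steps. After 5 days, a combined fix-and-stain solution (final 0.05% Triton X-100, 1% formaldehyde, 1 ug/ml Hoechst) was added. Nuclei counted on 4× images gave relative viability as treated counts over vehicle counts, reported as the median of duplicate plates.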

[2] = compound: C1/C(=C\C2=CC=CS2)/C(=O)/C(=C/C3=CC=CS3)/C1 + CC1(C)CCC(c2ccc(Cl)cc2)=C(CN2CCN(c3ccc(C(=O)NS(=O)(=O)c4ccc(N[C@H](CCN5CCOCC5)CSc5ccccc5)c(S(=O)(=O)C(F)(F)F)c4)cc3)CC2)C1 [Navitoclax] (partner 0.5 µM)
Method in brief: as §1

Lestaurtinib + Alpelisib = compound: C[C@]12O[C@H](C[C@]1(O)CO)n1c3ccccc3c3c4c(c5c6ccccc6n2c5c31)CNC4=O [Lestaurtinib] + Cc1nc(NC(=O)N2CCC[C@H]2C(N)=O)sc1-c1ccnc(C(C)(C)C(F)(F)F)c1 [Alpelisib] (partner 2 µM)
Method in brief: as §1

[3] = compound: C[C@]12O[C@H](C[C@]1(O)CO)n1c3ccccc3c3c4c(c5c6ccccc6n2c5c31)CNC4=O [Lestaurtinib] + Cc1cc(Nc2cc(N3CCN(C)CC3)nc(Sc3ccc(NC(=O)C4CC4)cc3)n2)n[nH]1 [Tozasertib] (partner 0.1 µM)
Method in brief: as §1

Cell Line: 201T
- relative viability ([1]; first compound 0.005 µM): 1.21
- relative viability ([1]; first compound 0.01581 µM): 1.22
- relative viability ([1]; first compound 0.05 µM): 1.29
- relative viability ([1]; first compound 0.1581 µM): 1.28
- relative viability ([1]; first compound 0.5 µM): 1.18
- relative viability ([2]; first compound 0.2 µM): 1.24
- relative viability ([2]; first compound 0.6325 µM): 1.17
- relative viability ([2]; first compound 2 µM): 1.27
- relative viability ([2]; first compound 6.325 µM): 1.13
- relative viability ([2]; first compound 20 µM): 1.2
- relative viability (Lestaurtinib + Alpelisib; first compound 0.005 µM): 1.04
- relative viability (Lestaurtinib + Alpelisib; first compound 0.01581 µM): 1.03
- relative viability (Lestaurtinib + Alpelisib; first compound 0.05 µM): 1.02
- relative viability (Lestaurtinib + Alpelisib; first compound 0.1581 µM): 0.933
- relative viability (Lestaurtinib + Alpelisib; first compound 0.5 µM): 0.693
- relative viability ([3]; first compound 0.005 µM): 1
- relative viability ([3]; first compound 0.01581 µM): 0.984
- relative viability ([3]; first compound 0.05 µM): 1.05
- relative viability ([3]; first compound 0.1581 µM): 0.955
- relative viability ([3]; first compound 0.5 µM): 0.354

Cell Line: A549
- relative viability ([1]; first compound 0.005 µM): 1.28
- relative viability ([1]; first compound 0.01581 µM): 1.27
- relative viability ([1]; first compound 0.05 µM): 0.948
- relative viability ([1]; first compound 0.1581 µM): 0.615
- relative viability ([1]; first compound 0.5 µM): 0.0764
- relative viability ([2]; first compound 0.2 µM): 1.32
- relative viability ([2]; first compound 0.6325 µM): 1.33
- relative viability ([2]; first compound 2 µM): 1.24
- relative viability ([2]; first compound 6.325 µM): 1.02
- relative viability ([2]; first compound 20 µM): 1.19
- relative viability (Lestaurtinib + Alpelisib; first compound 0.005 µM): 0.802
- relative viability (Lestaurtinib + Alpelisib; first compound 0.01581 µM): 0.638
- relative viability (Lestaurtinib + Alpelisib; first compound 0.05 µM): 0.518
- relative viability (Lestaurtinib + Alpelisib; first compound 0.1581 µM): 0.263
- relative viability (Lestaurtinib + Alpelisib; first compound 0.5 µM): 0.0616

Cell Line: A-427
- relative viability ([1]; first compound 0.005 µM): 1.04
- relative viability ([1]; first compound 0.01581 µM): 0.858
- relative viability ([1]; first compound 0.05 µM): 0.914
- relative viability ([1]; first compound 0.1581 µM): 0.455
- relative viability ([1]; first compound 0.5 µM): 0.329
- relative viability ([2]; first compound 0.2 µM): 1.03
- relative viability ([2]; first compound 0.6325 µM): 1.02
- relative viability ([2]; first compound 2 µM): 0.982
- relative viability ([2]; first compound 6.325 µM): 0.852
- relative viability ([2]; first compound 20 µM): 0.92
- relative viability (Lestaurtinib + Alpelisib; first compound 0.005 µM): 1.14
- relative viability (Lestaurtinib + Alpelisib; first compound 0.01581 µM): 1.16
- relative viability (Lestaurtinib + Alpelisib; first compound 0.05 µM): 0.952
- relative viability (Lestaurtinib + Alpelisib; first compound 0.1581 µM): 0.571
- relative viability (Lestaurtinib + Alpelisib; first compound 0.5 µM): 0.4
- relative viability ([3]; first compound 0.005 µM): 0.199
- relative viability ([3]; first compound 0.01581 µM): 0.206
- relative viability ([3]; first compound 0.05 µM): 0.183
- relative viability ([3]; first compound 0.1581 µM): 0.159
- relative viability ([3]; first compound 0.5 µM): 0.144

Cell Line: ABC-1
- relative viability (Lestaurtinib + Alpelisib; first compound 0.005 µM): 1.06
- relative viability (Lestaurtinib + Alpelisib; first compound 0.01581 µM): 1.02
- relative viability (Lestaurtinib + Alpelisib; first compound 0.05 µM): 0.845
- relative viability (Lestaurtinib + Alpelisib; first compound 0.1581 µM): 0.658
- relative viability (Lestaurtinib + Alpelisib; first compound 0.5 µM): 0.262
- relative viability ([3]; first compound 0.005 µM): 0.208
- relative viability ([3]; first compound 0.01581 µM): 0.175
- relative viability ([3]; first compound 0.05 µM): 0.134
- relative viability ([3]; first compound 0.1581 µM): 0.155
- relative viability ([3]; first compound 0.5 µM): 0.2

Cell Line: BEN
- relative viability ([1]; first compound 0.005 µM): 0.0676
- relative viability ([1]; first compound 0.01581 µM): 0.07
- relative viability ([1]; first compound 0.05 µM): 0.0559
- relative viability ([1]; first compound 0.1581 µM): 0.0652
- relative viability ([1]; first compound 0.5 µM): 0.0525
- relative viability ([2]; first compound 0.2 µM): 0.0742
- relative viability ([2]; first compound 0.6325 µM): 0.059
- relative viability ([2]; first compound 2 µM): 0.368
- relative viability ([2]; first compound 6.325 µM): 0.0733
- relative viability ([2]; first compound 20 µM): 0.0554
- relative viability (Lestaurtinib + Alpelisib; first compound 0.005 µM): 1.09
- relative viability (Lestaurtinib + Alpelisib; first compound 0.01581 µM): 1.31
- relative viability (Lestaurtinib + Alpelisib; first compound 0.05 µM): 0.852
- relative viability (Lestaurtinib + Alpelisib; first compound 0.1581 µM): 0.722
- relative viability (Lestaurtinib + Alpelisib; first compound 0.5 µM): 0.446
- relative viability ([3]; first compound 0.005 µM): 0.561
- relative viability ([3]; first compound 0.01581 µM): 0.53
- relative viability ([3]; first compound 0.05 µM): 0.428
- relative viability ([3]; first compound 0.1581 µM): 0.377
- relative viability ([3]; first compound 0.5 µM): 0.217

Cell Line: CAL-12T
- relative viability ([1]; first compound 0.005 µM): 1.25
- relative viability ([1]; first compound 0.01581 µM): 1.45
- relative viability ([1]; first compound 0.05 µM): 1.08
- relative viability ([1]; first compound 0.1581 µM): 1.2
- relative viability ([1]; first compound 0.5 µM): 0.686
- relative viability ([2]; first compound 0.2 µM): 1.31
- relative viability ([2]; first compound 0.6325 µM): 1.35
- relative viability ([2]; first compound 2 µM): 1.35
- relative viability ([2]; first compound 6.325 µM): 0.844
- relative viability ([2]; first compound 20 µM): 1.05
- relative viability (Lestaurtinib + Alpelisib; first compound 0.005 µM): 1.12
- relative viability (Lestaurtinib + Alpelisib; first compound 0.01581 µM): 1.3
- relative viability (Lestaurtinib + Alpelisib; first compound 0.05 µM): 1.19
- relative viability (Lestaurtinib + Alpelisib; first compound 0.1581 µM): 0.502
- relative viability (Lestaurtinib + Alpelisib; first compound 0.5 µM): 0.385
- relative viability ([3]; first compound 0.005 µM): 0.32
- relative viability ([3]; first compound 0.01581 µM): 0.44
- relative viability ([3]; first compound 0.05 µM): 0.333
- relative viability ([3]; first compound 0.1581 µM): 0.37
- relative viability ([3]; first compound 0.5 µM): 0.332

Cell Line: COR-L23
- relative viability ([1]; first compound 0.005 µM): 1.14
- relative viability ([1]; first compound 0.01581 µM): 1.12
- relative viability ([1]; first compound 0.1581 µM): 0.62
- relative viability ([1]; first compound 0.5 µM): 0.184
- relative viability ([2]; first compound 0.2 µM): 1.06
- relative viability ([2]; first compound 0.6325 µM): 1.09
- relative viability ([2]; first compound 2 µM): 1.02
- relative viability ([2]; first compound 6.325 µM): 0.864
- relative viability ([2]; first compound 20 µM): 0.967
- relative viability (Lestaurtinib + Alpelisib; first compound 0.005 µM): 0.716
- relative viability (Lestaurtinib + Alpelisib; first compound 0.01581 µM): 0.702
- relative viability (Lestaurtinib + Alpelisib; first compound 0.1581 µM): 0.478
- relative viability (Lestaurtinib + Alpelisib; first compound 0.5 µM): 0.192
- relative viability ([3]; first compound 0.005 µM): 0.197
- relative viability ([3]; first compound 0.01581 µM): 0.229
- relative viability ([3]; first compound 0.05 µM): 0.184
- relative viability ([3]; first compound 0.1581 µM): 0.174
- relative viability ([3]; first compound 0.5 µM): 0.184

Cell Line: COR-L 105
- relative viability ([1]; first compound 0.005 µM): 0.803
- relative viability ([1]; first compound 0.01581 µM): 0.746
- relative viability ([1]; first compound 0.05 µM): 0.595
- relative viability ([1]; first compound 0.1581 µM): 0.643
- relative viability ([1]; first compound 0.5 µM): 0.322
- relative viability ([2]; first compound 0.2 µM): 0.623
- relative viability ([2]; first compound 0.6325 µM): 0.772
- relative viability ([2]; first compound 2 µM): 0.79
- relative viability ([2]; first compound 6.325 µM): 0.737
- relative viability ([2]; first compound 20 µM): 0.701
- relative viability (Lestaurtinib + Alpelisib; first compound 0.005 µM): 1.07
- relative viability (Lestaurtinib + Alpelisib; first compound 0.01581 µM): 0.926
- relative viability (Lestaurtinib + Alpelisib; first compound 0.05 µM): 0.773
- relative viability (Lestaurtinib + Alpelisib; first compound 0.1581 µM): 0.583
- relative viability (Lestaurtinib + Alpelisib; first compound 0.5 µM): 0.248
- relative viability ([3]; first compound 0.005 µM): 0.406
- relative viability ([3]; first compound 0.01581 µM): 0.355
- relative viability ([3]; first compound 0.05 µM): 0.35
- relative viability ([3]; first compound 0.1581 µM): 0.31
- relative viability ([3]; first compound 0.5 µM): 0.268

Cell Line: Calu-6
- relative viability ([1]; first compound 0.005 µM): 1.01
- relative viability ([1]; first compound 0.01581 µM): 0.797
- relative viability ([1]; first compound 0.05 µM): 0.506
- relative viability ([1]; first compound 0.1581 µM): 0.468
- relative viability ([1]; first compound 0.5 µM): 0.106
- relative viability ([2]; first compound 0.2 µM): 0.855
- relative viability ([2]; first compound 0.6325 µM): 0.848
- relative viability ([2]; first compound 2 µM): 0.91
- relative viability ([2]; first compound 6.325 µM): 0.811
- relative viability ([2]; first compound 20 µM): 0.857
- relative viability (Lestaurtinib + Alpelisib; first compound 0.005 µM): 1.05
- relative viability (Lestaurtinib + Alpelisib; first compound 0.01581 µM): 0.873
- relative viability (Lestaurtinib + Alpelisib; first compound 0.05 µM): 0.501
- relative viability (Lestaurtinib + Alpelisib; first compound 0.1581 µM): 0.381
- relative viability (Lestaurtinib + Alpelisib; first compound 0.5 µM): 0.164
